Test results reported in patent US20230099293A1, “OGA INHIBITOR COMPOUNDS” (priority 2019, published 2023).
One block for each molecule: values may come before it.

Columns and labels:
hOGA = target: T1, hOGA (Homo sapiens, UniProt O60502); experiment: OGA cellular assay (ICC detection of O-GlcNAcylated proteins in HEK293 cells inducible for P301L mutant human Tau); format: cell-based; parameters: Emax: dose or concentration left out as unconfirmed; conditions: for EC50: Cellular hOGA; for Emax: HEK293, read-out: Cellular Emax (%)
T1 construct: endogenous in cells; host or cells: HEK293 cells inducible for P301L mutant human Tau (isoform 2N4R)
T1 sequence (O60502 1-916): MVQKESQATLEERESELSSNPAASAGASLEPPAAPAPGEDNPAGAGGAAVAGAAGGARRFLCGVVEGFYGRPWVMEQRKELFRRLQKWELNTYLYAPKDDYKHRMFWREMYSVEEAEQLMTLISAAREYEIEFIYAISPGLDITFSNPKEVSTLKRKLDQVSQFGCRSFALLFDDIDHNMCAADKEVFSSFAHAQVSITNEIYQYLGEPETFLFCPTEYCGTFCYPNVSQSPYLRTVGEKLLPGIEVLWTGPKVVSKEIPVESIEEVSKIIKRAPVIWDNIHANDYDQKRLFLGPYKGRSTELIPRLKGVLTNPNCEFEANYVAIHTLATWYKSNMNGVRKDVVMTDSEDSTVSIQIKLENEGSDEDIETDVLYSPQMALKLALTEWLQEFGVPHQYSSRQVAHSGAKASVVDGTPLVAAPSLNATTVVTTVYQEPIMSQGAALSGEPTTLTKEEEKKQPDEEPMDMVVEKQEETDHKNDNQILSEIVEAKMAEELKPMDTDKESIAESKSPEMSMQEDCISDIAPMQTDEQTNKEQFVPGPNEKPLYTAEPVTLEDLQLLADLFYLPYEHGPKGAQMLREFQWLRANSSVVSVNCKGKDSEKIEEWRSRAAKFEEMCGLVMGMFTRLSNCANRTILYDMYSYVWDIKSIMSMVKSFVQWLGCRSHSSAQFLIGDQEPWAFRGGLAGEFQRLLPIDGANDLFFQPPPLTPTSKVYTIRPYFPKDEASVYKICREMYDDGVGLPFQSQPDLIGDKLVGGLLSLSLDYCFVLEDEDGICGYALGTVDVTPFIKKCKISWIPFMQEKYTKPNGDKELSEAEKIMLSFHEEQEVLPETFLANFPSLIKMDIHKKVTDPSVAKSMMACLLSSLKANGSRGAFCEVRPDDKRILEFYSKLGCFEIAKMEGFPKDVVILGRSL
Description: HEK293 cells inducible for P301L mutant human Tau (isoform 2N4R) were established at Janssen. Thiamet-G was used for both plate validation (high control) and as reference compound (reference EC50 assay validation). OGA inhibition is evaluated through the immunocytochemical (ICC) detection of O-GlcNAcylated proteins by the use of a monoclonal antibody (CTD110.6; Cell Signaling, #9875) detecting O-GlcNAcylated residues as previously described (Dorfmueller et al. 2010 Chemistry & biology, 17:1250). Inhibition of OGA will result in an increase of O-GlcNAcylated protein levels resulting in an increased signal in the experiment. Cell nuclei are stained with Hoechst to give a cell culture quality control and a rough estimate of immediate compounds toxicity, if any. ICC pictures are imaged with a Perkin Elmer Opera Phenix plate microscope and quantified with the provided software Perkin Elmer Harmony 4.1.
Cells were propagated in DMEM high Glucose (Sigma, #D5796) following standard procedures. 2 days before the cell assay cells are split, counted and seeded in Poly-D-Lysine (PDL) coated 96-wells (Greiner, #655946) plate at a cell density of 12,000 cells per cm^2 (4,000 cells per well) in 100 μl of Assay Medium (Low Glucose medium is used to reduce basal levels of GlcNAcylation) (Park et al. 2014 The Journal of biological chemistry 289:13519). At the day of compound test medium from assay plates was removed and replenished with 90 μl of fresh Assay Medium. 10 μl of compounds at a 10 fold final concentration were added to the wells. Plates were centrifuged shortly before incubation in the cell incubator for 6 hours. DMSO concentration was set to 0.2%. Medium is discarded by applying vacuum. For staining of cells medium was removed and cells washed once with 100 μl D-PBS (Sigma, #D8537). From next step onwards unless other stated assay volume was always 50 μl and incubation was performed without agitation and at room temperature. Cells were fixed in 50 μl of a 4% paraformaldehyde (PFA, Alpha aesar, #043368) PBS solution for 15 minutes at room temperature. […] Before analysis samples were washed 2 times manually for 5 minutes in ICC base buffer.
Imaging is performed using Perkin Elmer Phenix Opera using a water 20× objective and recording 9 fields per well. Intensity readout at 488 nm is used as a measure of O-GlcNAcylation level of total proteins in wells. To assess potential toxicity of compounds nuclei were counted using the Hoechst staining. IC50-values are calculated using parametric non-linear regression model fitting. As a maximum inhibition Thiamet Gat a 200 uM concentration is present on each plate. In addition, a concentration response of Thiamet G is calculated on each plate.

[1] = target: T2, recombinant human Meningioma Expressed Antigen 5 (MGEA5), also referred to as O-GlcNAcase (OGA) (Homo sapiens, UniProt O60502); experiment: OGA biochemical assay (inhibition of FM-GlcNAc hydrolysis, fluorescence); conditions: for IC50: Enzymatic hOGA; for Emax: read-out: Enzymatic Emax (%)
T2 construct: Full length OGA enzyme was purchased at OriGene (cat #TP322411); purchased OriGene TP322411
T2 sequence (O60502 1-916): T1 sequence (O60502 1-916)
Description: The hydrolysis FM-GlcNAc (Marker Gene technologies, cat #M1485) results in the formation of β-D-N-glucosamineacetate and fluorescein. The fluorescence of the latter can be measured at excitation wavelength 485 nm and emission wavelength 538 nm. An increase in enzyme activity results in an increase in fluorescence signal. Full length OGA enzyme was purchased at OriGene (cat #TP322411). The enzyme was stored in 25 mM Tris.HCl, pH 7.3, 100 mM glycine, 10% glycerol at −20° C. […] The assay was performed in 200 mM Citrate/phosphate buffer supplemented with 0.005% Tween-20. 35.6 g Na2HIPO42H2O (Sigma, #C0759) were dissolved in 1 L water to obtain a 200 mM solution. […] The buffer to stop the reaction consists of a 500 mM Carbonate buffer, pH 11.0. […] OGA was used at a 2 nM concentration and FM-GlcNAc at a 100 uM final concentration. Dilutions were prepared in assay buffer.
Plates were pre-incubated for 60 min at room temperature and then 2 μl FM-GlcNAc substrate mix added. […] Plates were briefly centrifuged for 1 min at 1000 rpm and incubate at room temperature for 6 h. To stop the reaction 5 μl STOP buffer were added and plates centrifuge again 1 min at 1000 rpm. Fluorescence was quantified in the Thermo Scientific Fluoroskan Ascent or the PerkinElmer EnVision with excitation wavelength 485 nm and emission wavelength 538 nm.
For analysis a best-fit curve is fitted by a minimum sum of squares method. From this an IC50 value and Hill coefficient was obtained. High control (no inhibitor) and low control (saturating concentrations of standard inhibitor) were used to define the minimum and maximum values.

[2] = pEC50, Table 5, HEK293 P301L Tau cells, 6 hours incubation, O-GlcNAcylation readout
[3] = pIC50, Table 5, full length OGA 2 nM, FM-GlcNAc 100 uM, 6 h at room temperature

- melting point: 219.8 °C
SMILES: Cc1cc(C(F)(F)F)cc(F)c1Nc1nccc2c1ncn2CC(=O)N(C)C1CC1

- melting point: 238.3 °C
SMILES: Cc1cc(C(F)(F)F)cc(F)c1Nc1nccc2c1ncn2CC(=O)N(C)CC(F)(F)F

- melting point: 212.2 °C
SMILES: [2H]C([2H])([2H])N(C)C(=O)Cn1cnc2c(Nc3c(C)cc(C(F)(F)F)cc3C)nccc21

SMILES: Cc1ccnc(C(C)C)c1Nc1nccc2c1ncn2CC(C)(F)F [Compound 1, 1-(2,2-Difluoropropyl)-N-(2-isopropyl-4-methylpyridin-3-yl)-1H-imidazo[4,5-c]pyridin-4-amine]
- EC50 (hOGA; [2]): 45.7 nM
- Emax (hOGA): 81%
- IC50 [1, 3]: 5.13 nM
- Emax [1]: 101%

SMILES: Cc1cc(C(F)(F)F)cc(Cl)c1Nc1nccc2c1ncn2CC(C)(F)F [Compound 2]
- EC50 (hOGA; [2]): 95.5 nM
- Emax (hOGA): 87%
- IC50 [1, 3]: 6.03 nM
- Emax [1]: 99%

SMILES: Cc1cc(F)cc(F)c1Nc1nccc2c1ncn2CC(C)(F)F [Compound 3]
- EC50 (hOGA; [2]): 741 nM
- Emax (hOGA): 57%
- IC50 [1, 3]: 25.7 nM
- Emax [1]: 101%
- melting point: 174.99 °C

SMILES: CNC(=O)Cn1cnc2c(Nc3c(C)cc(C(F)(F)F)cc3C)nccc21 [Compound 4, 2-(4-((2,6-Dimethyl-4-(trifluoromethyl)phenyl)amino)-1H-imidazo[4,5-c]pyridin-1-yl)-N-methylacetamide]
- EC50 (hOGA; [2]): 55 nM
- Emax (hOGA): 101%
- IC50 [1, 3]: 3.39 nM
- Emax [1]: 98%
- melting point: 275.1 °C

SMILES: Cc1cc(C(F)(F)F)cc(C)c1Nc1nccc2c1ncn2CC(N)=O [Compound 5, 2-[4-[2,6-Dimethyl-4-(trifluoromethyl)anilino]imidazo[4,5-c]pyridin-1-yl]acetamide]
- EC50 (hOGA; [2]): 447 nM
- Emax (hOGA): 67%
- IC50 [1, 3]: 120 nM
- Emax [1]: 91%
- melting point: 266.8 °C

SMILES: Cc1cc(C(F)(F)F)cc(C)c1Nc1ncc(C)c2c1ncn2CC(=O)N(C)C [Compound 6, 2-(4-((2,6-Dimethyl-4-(trifluoromethyl)phenyl)amino)-7-methyl-1H-imidazo[4,5-c]pyridin-1-yl)-N,N-dimethylacetamide]
- EC50 (hOGA; [2]): 288 nM
- Emax (hOGA): 60%
- IC50 [1, 3]: 19.1 nM
- Emax [1]: 99%
- melting point: 238.3 °C

SMILES: CN(C)C(=O)Cn1cnc2c(Nc3c(Cl)cc(OC(F)(F)F)cc3Cl)nccc21 [Compound 7]
- EC50 (hOGA; [2]): 372 nM
- Emax (hOGA): 66%
- IC50 [1, 3]: 6.92 nM
- Emax [1]: 102%
- melting point: 201.5 °C

SMILES: COc1cc(C)c(Nc2nccc3c2ncn3CC(=O)N(C)C)c(C)c1 [Compound 8]
- EC50 (hOGA; [2]): 26.9 nM
- Emax (hOGA): 98%
- IC50 [1, 3]: 5.5 nM
- Emax [1]: 97%
- melting point: 230 °C

SMILES: Cc1cc(OC(F)(F)F)cc(C)c1Nc1nccc2c1ncn2CC(=O)N(C)C [Compound 9]
- EC50 (hOGA; [2]): 58.9 nM
- Emax (hOGA): 82%
- IC50 [1, 3]: 6.76 nM
- Emax [1]: 99%
- melting point: 186.5 °C

SMILES: CCc1cc(C(F)(F)F)cc(C)c1Nc1nccc2c1ncn2CC(=O)N(C)C [Compound 10]
- EC50 (hOGA; [2]): 100 nM
- Emax (hOGA): 100%
- IC50 [1, 3]: 9.33 nM
- Emax [1]: 100%
- melting point: 211.6 °C

SMILES: Cc1cc(Cl)cc(C)c1Nc1nccc2c1ncn2CC(=O)N(C)C [Compound 11]
- EC50 (hOGA; [2]): 209 nM
- Emax (hOGA): 62%
- IC50 [1, 3]: 10 nM
- Emax [1]: 99%
- melting point: 209.8 °C

SMILES: Cc1cc(C(F)(F)F)cc(C(C)C)c1Nc1nccc2c1ncn2CC(=O)N(C)C [Compound 12]
- EC50 (hOGA; [2]): 46.8 nM
- Emax (hOGA): 88%
- IC50 [1, 3]: 10.7 nM
- Emax [1]: 101%
- melting point: 234.4 °C

SMILES: Cc1cc2c(cnn2C)c(C)c1Nc1nccc2c1ncn2CC(=O)N(C)C [Compound 13]
- EC50 (hOGA; [2]): 69.2 nM
- Emax (hOGA): 113%
- IC50 [1, 3]: 13.8 nM
- Emax [1]: 98%
- melting point: 265.1 °C

SMILES: Cc1ccnc(C(C)C)c1Nc1nccc2c1ncn2CC(=O)N(C)C [Compound 14]
- EC50 (hOGA; [2]): 427 nM
- Emax (hOGA): 75%
- IC50 [1, 3]: 14.1 nM
- Emax [1]: 100%
- melting point: 223.3 °C

SMILES: Cc1cc(C(F)(F)F)cc(Cl)c1Nc1nccc2c1ncn2CC(=O)N(C)C [Compound 15]
- EC50 (hOGA; [2]): 204 nM
- Emax (hOGA): 64%
- IC50 [1, 3]: 14.1 nM
- Emax [1]: 98%
- melting point: 214.14 °C

SMILES: Cc1cc(F)cc(F)c1Nc1nccc2c1ncn2CC(=O)N(C)C [Compound 26]
- EC50 (hOGA; [2]): > 1000 nM
- Emax (hOGA): 8%
- IC50 [1, 3]: 191 nM
- Emax [1]: 98%

SMILES: Cc1cc(C(F)(F)F)nc(C)c1Nc1nccc2c1ncn2CC(=O)N1CCC1 [Compound 51]
- EC50 (hOGA; [2]): > 1000 nM
- Emax (hOGA): 15%
- IC50 [1, 3]: 1480 nM
- Emax [1]: 82%

SMILES: CCCCn1cnc2c(Nc3c(Cl)cncc3Cl)nccc21 [Compound 58]
- IC50 [1, 3]: 525 nM
- Emax [1]: 95%

SMILES: CCCCn1ncc2c(Nc3c(Cl)cncc3Cl)nccc21 [Compound 67]
- EC50 (hOGA; [2]): > 1000 nM
- Emax (hOGA): 6%
- IC50 [1, 3]: 513 nM
- Emax [1]: 94%

SMILES: CCCCn1ncc2c(Nc3c(C)cncc3C)nccc21 [Compound 68]
- IC50 [1, 3]: 7590 nM
- Emax [1]: 61%

SMILES: Cc1cc(C(F)(F)F)cc(C)c1Nc1nccc2c1ncn2-c1ncn(C)c1C [Compound 83]
- EC50 (hOGA; pEC50, second table, averaged values over several runs, obtained after recalibration of the equipment): > 1000 nM
- IC50 ([1]; pIC50, second table, averaged values over several runs, obtained after recalibration of the equipment): 1170 nM
